According to ChEMBL document CHEMBL5634161, “Discovery of benzamide-based PI3K/HDAC dual inhibitors with marked pro-apoptosis activity in lymphoma cells” (Eur J Med Chem, 2023):

Legend:
Histone deacetylase 2 = Histone deacetylase 2 (Homo sapiens, UniProt Q92769); test: Inhibition of HDAC2 (unknown origin) using Boc-Lys(acetyl)-AMC as substrate preincubated for 1 hrs followed by substrate addition and measured after 2 hrs by spectrophotometer based fluorometric assay
[1] = target: Phosphatidylinositol 4,5-bisphosphate 3-kinase catalytic subunit alpha isoform (Homo sapiens, UniProt P42336); test: Inhibition of PI3Kalpha (unknown origin) using PIP2 as substrate incubated for 1 hrs in presence of ATP by ADP-Glo kinase assay
Histone deacetylase 3 = Histone deacetylase 3 (Homo sapiens, UniProt O15379); test: Inhibition of HDAC3 (unknown origin) using Boc-Lys(acetyl)-AMC as substrate preincubated for 1 hrs followed by substrate addition and measured after 2 hrs by spectrophotometer based fluorometric assay
Histone deacetylase 1 = Histone deacetylase 1 (Homo sapiens, UniProt Q13547); test: Inhibition of HDAC1 (unknown origin) using Boc-Lys(acetyl)-AMC as substrate preincubated for 1 hrs followed by substrate addition and measured after 2 hrs by spectrophotometer based fluorometric assay
JeKo-1 [2] = test: Induction of apoptosis in human JeKo-1 cells assessed as early apoptotic cells at 0.25 uM incubated for 48 hrs by Annexin-V/FITC and PI staining based flow cytometric analysis (reference value: […]); format: functional
JeKo-1 [3] = test: Induction of apoptosis in human JeKo-1 cells assessed as late apoptotic cells at 1 uM incubated for 48 hrs by Annexin-V/FITC and PI staining based flow cytometric analysis (reference value: 3.66%); format: functional
JeKo-1 [4] = test: (§1) Synergistic antiproliferative activity against human JeKo-1 cells assessed as combination index at 1.25 uM incubated for 48 hrs in presence of 5 uM 4-(3-(4-(4-methoxy-6-morpholino-1,3,5-triazin-2-yl)phenyl)urea)-N-(2-ethylamino)ethylbenzamide by resazurin dye based fluorescence microplate reader analysis; format: functional
JeKo-1 [5] = test: Induction of apoptosis in human JeKo-1 cells assessed as viable cells at 0.25 uM incubated for 48 hrs by Annexin-V/FITC and PI staining based flow cytometric analysis (reference value: 94.1%); format: functional; conditions: read-out: Activity
JeKo-1 [6] = test: Induction of apoptosis in human JeKo-1 cells assessed as necrotic cells at 0.25 uM incubated for 48 hrs by Annexin-V/FITC and PI staining based flow cytometric analysis (reference value: 1.05%); format: functional
JeKo-1 [7] = test: Induction of apoptosis in human JeKo-1 cells assessed as viable cells at 1 uM incubated for 48 hrs by Annexin-V/FITC and PI staining based flow cytometric analysis (reference value: 94.1%); format: functional; conditions: read-out: Activity
JeKo-1 [8] = test: as §1, with “5” for “1.25”; format: functional
MDA-MB-231 = test: Antiproliferative activity against human MDA-MB-231 cells incubated for 48 hrs by resazurin dye based fluorescence micro plate reader analysis; format: functional, cell-based; conditions: MDA-MB-231, 48 h
JeKo-1 [9] = test: as §1, with “of 0.625” for “of 5”; format: functional
JeKo-1 [10] = test: Induction of apoptosis in human JeKo-1 cells assessed as early apoptotic cells at 1 uM incubated for 48 hrs by Annexin-V/FITC and PI staining based flow cytometric analysis (reference value: […]); format: functional
JeKo-1 [11] = test: Induction of apoptosis in human JeKo-1 cells assessed as necrotic cells at 0.5 uM incubated for 48 hrs by Annexin-V/FITC and PI staining based flow cytometric analysis (reference value: 1.05%); format: functional
HL-60 = test: Antiproliferative activity against human HL-60 cells incubated for 48 hrs by resazurin dye based fluorescence micro plate reader analysis; format: functional, cell-based; conditions: HL-60, 48 h
JeKo-1 [12] = test: as §1, with “at 0.625” for “at 1.25”, “of 2.5” for “of 5”; format: functional
JeKo-1 [13] = test: Induction of apoptosis in human JeKo-1 cells assessed as viable cells at 0.5 uM incubated for 48 hrs by Annexin-V/FITC and PI staining based flow cytometric analysis (reference value: 94.1%); format: functional; conditions: read-out: Activity
JeKo-1 [14] = test: as §1, with “at 5” for “at 1.25”, “of 1.25” for “of 5”; format: functional
JeKo-1 [15] = test: as §1, with “of 1.25” for “of 5”; format: functional
JeKo-1 [16] = test: Induction of apoptosis in human JeKo-1 cells assessed as early apoptotic cells at 0.5 uM incubated for 48 hrs by Annexin-V/FITC and PI staining based flow cytometric analysis (reference value: […]); format: functional
JeKo-1 [17] = test: as §1, with “at 2.5” for “at 1.25”, “of 0.625” for “of 5”; format: functional
JeKo-1 [18] = test: as §1, with “at 0.625” for “at 1.25”, “of 0.625” for “of 5”; format: functional
JeKo-1 [19] = test: as §1, with “at 0.625” for “at 1.25”, “of 1.25” for “of 5”; format: functional
JeKo-1 [20] = test: as §1, with “0.625” for “1.25”; format: functional
JeKo-1 [21] = test: as §1, with “at 2.5” for “at 1.25”, “of 1.25” for “of 5”; format: functional
JeKo-1 [22] = test: Induction of apoptosis in human JeKo-1 cells assessed as necrotic cells at 1 uM incubated for 48 hrs by Annexin-V/FITC and PI staining based flow cytometric analysis (reference value: 1.05%); format: functional
JeKo-1 [23] = test: Induction of apoptosis in human JeKo-1 cells assessed as late apoptotic cells at 0.5 uM incubated for 48 hrs by Annexin-V/FITC and PI staining based flow cytometric analysis (reference value: 3.66%); format: functional
JeKo-1 [24] = test: as §1, with “2.5” for “1.25”; format: functional
[25] = Cytotoxicity against human HL7702 cells incubated for 48 hrs by resazurin dye based fluorescence micro plate reader analysis; format: toxicity, cell-based; conditions: HL7702 (L02) cells
JeKo-1 [26] = test: as §1, with “of 2.5” for “of 5”; format: functional
MM1.S = test: Antiproliferative activity against human MM1.S cells incubated for 48 hrs by resazurin dye based fluorescence micro plate reader analysis; format: functional, cell-based
JeKo-1 [27] = test: as §1, with “at 5” for “at 1.25”, “of 2.5” for “of 5”; format: functional
JeKo-1 [28] = test: as §1, with “at 2.5” for “at 1.25”, “of 2.5” for “of 5”; format: functional
JeKo-1 [29] = test: Induction of apoptosis in human JeKo-1 cells assessed as late apoptotic cells at 0.25 uM incubated for 48 hrs by Annexin-V/FITC and PI staining based flow cytometric analysis (reference value: 3.66%); format: functional
JeKo-1 [30] = test: Antiproliferative activity against human JeKo-1 cells incubated for 48 hrs by resazurin dye based fluorescence micro plate reader analysis; format: functional, cell-based; conditions: JeKo-1, 48 h
JeKo-1 [31] = test: as §1, with “at 5” for “at 1.25”, “of 0.625” for “of 5”; format: functional

Phosphatidylinositol 4,5-bisphosphate 3-kinase catalytic subunit alpha isoform, sequence (P42336 whole entry, canonical isoform): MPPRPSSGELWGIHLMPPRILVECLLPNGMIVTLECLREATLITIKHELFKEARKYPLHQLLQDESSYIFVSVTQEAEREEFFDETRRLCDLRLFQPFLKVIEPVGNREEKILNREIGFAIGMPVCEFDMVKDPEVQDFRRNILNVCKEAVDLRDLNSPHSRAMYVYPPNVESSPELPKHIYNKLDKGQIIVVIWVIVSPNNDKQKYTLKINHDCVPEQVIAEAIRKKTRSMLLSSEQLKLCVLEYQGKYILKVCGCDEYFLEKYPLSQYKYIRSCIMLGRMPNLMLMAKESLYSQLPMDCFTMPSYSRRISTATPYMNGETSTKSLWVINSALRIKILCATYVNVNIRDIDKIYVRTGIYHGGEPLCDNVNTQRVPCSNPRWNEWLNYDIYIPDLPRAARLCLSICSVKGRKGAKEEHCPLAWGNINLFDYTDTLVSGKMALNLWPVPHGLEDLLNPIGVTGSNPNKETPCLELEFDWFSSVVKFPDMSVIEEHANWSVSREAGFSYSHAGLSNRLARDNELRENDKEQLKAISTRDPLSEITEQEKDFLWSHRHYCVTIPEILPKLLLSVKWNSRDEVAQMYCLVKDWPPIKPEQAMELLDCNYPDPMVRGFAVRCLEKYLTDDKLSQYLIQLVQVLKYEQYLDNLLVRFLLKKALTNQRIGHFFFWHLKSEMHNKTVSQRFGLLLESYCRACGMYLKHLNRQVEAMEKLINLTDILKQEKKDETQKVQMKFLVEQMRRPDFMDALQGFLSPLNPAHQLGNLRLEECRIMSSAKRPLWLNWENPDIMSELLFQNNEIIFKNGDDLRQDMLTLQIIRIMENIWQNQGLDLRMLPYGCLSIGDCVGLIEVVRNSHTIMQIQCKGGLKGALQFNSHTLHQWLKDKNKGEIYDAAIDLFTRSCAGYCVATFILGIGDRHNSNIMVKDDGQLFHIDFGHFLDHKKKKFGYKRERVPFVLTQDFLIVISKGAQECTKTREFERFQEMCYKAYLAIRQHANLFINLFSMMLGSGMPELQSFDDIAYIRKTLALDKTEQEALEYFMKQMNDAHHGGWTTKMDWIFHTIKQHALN
Histone deacetylase 2, sequence (Q92769 whole entry, canonical isoform): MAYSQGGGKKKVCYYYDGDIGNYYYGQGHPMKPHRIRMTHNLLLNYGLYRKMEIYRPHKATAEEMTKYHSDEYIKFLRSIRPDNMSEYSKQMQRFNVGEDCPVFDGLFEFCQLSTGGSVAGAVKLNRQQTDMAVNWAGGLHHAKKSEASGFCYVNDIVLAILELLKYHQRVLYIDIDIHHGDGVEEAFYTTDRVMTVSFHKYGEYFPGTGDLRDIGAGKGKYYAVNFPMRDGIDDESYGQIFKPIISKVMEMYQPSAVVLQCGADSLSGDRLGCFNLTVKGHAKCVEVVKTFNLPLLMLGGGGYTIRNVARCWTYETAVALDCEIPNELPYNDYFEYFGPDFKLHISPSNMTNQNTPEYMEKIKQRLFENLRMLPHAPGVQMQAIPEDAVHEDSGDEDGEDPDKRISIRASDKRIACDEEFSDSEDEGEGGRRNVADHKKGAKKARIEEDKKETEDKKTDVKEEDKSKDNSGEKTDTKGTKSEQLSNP
Histone deacetylase 1, sequence (Q13547 whole entry): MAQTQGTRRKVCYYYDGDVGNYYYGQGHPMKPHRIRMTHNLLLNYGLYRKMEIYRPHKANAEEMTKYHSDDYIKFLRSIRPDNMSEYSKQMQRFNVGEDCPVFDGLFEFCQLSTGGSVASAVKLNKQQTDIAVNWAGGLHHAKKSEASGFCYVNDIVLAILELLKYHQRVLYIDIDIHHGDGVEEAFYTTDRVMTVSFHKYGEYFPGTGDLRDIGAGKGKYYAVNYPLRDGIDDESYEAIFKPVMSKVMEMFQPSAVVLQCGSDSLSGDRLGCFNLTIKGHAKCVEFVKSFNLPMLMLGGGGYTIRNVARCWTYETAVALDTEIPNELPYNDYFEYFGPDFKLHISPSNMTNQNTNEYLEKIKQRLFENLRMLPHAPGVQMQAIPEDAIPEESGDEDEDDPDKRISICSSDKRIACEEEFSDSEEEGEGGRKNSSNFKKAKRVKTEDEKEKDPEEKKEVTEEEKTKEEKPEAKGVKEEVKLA
Histone deacetylase 3, sequence (O15379 whole entry): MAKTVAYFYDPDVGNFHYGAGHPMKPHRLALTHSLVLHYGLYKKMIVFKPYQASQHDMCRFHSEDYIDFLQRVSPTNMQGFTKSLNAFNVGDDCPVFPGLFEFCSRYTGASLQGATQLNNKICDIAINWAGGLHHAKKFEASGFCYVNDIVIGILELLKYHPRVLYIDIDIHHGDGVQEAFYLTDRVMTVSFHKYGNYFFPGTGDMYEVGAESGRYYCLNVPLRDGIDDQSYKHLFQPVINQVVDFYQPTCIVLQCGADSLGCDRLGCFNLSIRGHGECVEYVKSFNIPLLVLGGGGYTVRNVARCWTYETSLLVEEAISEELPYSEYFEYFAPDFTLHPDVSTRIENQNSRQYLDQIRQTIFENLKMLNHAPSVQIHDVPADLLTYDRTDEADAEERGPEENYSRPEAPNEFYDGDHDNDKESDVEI

Nc1ccccc1NC(=O)CNC(=O)c1ccc(NC(=O)Nc2ccc(-c3nc(N4CCOCC4)nc(N4CCOCC4)n3)cc2)cc1
IC50 (Histone deacetylase 2): > 10000 nM | IC50 [1]: 37.7 nM | IC50 (Histone deacetylase 3): > 10000 nM | IC50 (Histone deacetylase 1): 1950 nM

Nc1ccccc1NC(=O)c1ccc(NC(=O)Nc2ccc(-c3nc(N4CCOCC4)nc(N4CCOCC4)n3)cc2)cc1
IC50 (Histone deacetylase 2): > 10000 nM | IC50 [1]: 6.5 nM | IC50 (Histone deacetylase 3): 134 nM | IC50 (Histone deacetylase 1): > 10000 nM

CC(=O)Nc1ccc(C(=O)Nc2ccccc2N)cc1 [TACEDINALINE]
Activity (JeKo-1 [2]): 1.46% | Activity (JeKo-1 [3]): 4.73% | CI (JeKo-1 [4]): 0.191 | viability at 0.25 µM (JeKo-1 [5]): 92.6% | Activity (JeKo-1 [6]): 0.37% | viability at 1 µM (JeKo-1 [7]): 92.4% | CI (JeKo-1 [8]): 0.191 | IC50 (MDA-MB-231): 10900 nM | CI (JeKo-1 [9]): 0.629 | Activity (JeKo-1 [10]): 2.3% | Activity (JeKo-1 [11]): 0.51% | IC50 (HL-60): 2800 nM | CI (JeKo-1 [12]): 0.475 | viability at 0.5 µM (JeKo-1 [13]): 92.4% | CI (JeKo-1 [14]): 0.39 | CI (JeKo-1 [15]): 0.431 | Activity (JeKo-1 [16]): 1.48% | IC50 [1]: > 10000 nM | CI (JeKo-1 [17]): 0.592 | CI (JeKo-1 [18]): 0.711 | CI (JeKo-1 [19]): 0.575 | CI (JeKo-1 [20]): 0.43 | CI (JeKo-1 [21]): 0.443 | Activity (JeKo-1 [22]): 0.59% | Activity (JeKo-1 [23]): 5.62% | CI (JeKo-1 [24]): 0.119 | IC50 at 48 h [25]: > 100000 nM | CI (JeKo-1 [26]): 0.342 | IC50 (MM1.S): 4700 nM | CI (JeKo-1 [27]): 0.221 | CI (JeKo-1 [28]): 0.274 | Activity (JeKo-1 [29]): 5.6% | IC50 (JeKo-1 [30]): 1900 nM | CI (JeKo-1 [31]): 0.61

Nc1ccccc1NC(=O)CCNC(=O)c1ccc(NC(=O)Nc2ccc(-c3nc(N4CCOCC4)nc(N4CCOCC4)n3)cc2)cc1
IC50 (Histone deacetylase 2): > 10000 nM | IC50 [1]: 51.7 nM | IC50 (Histone deacetylase 3): > 10000 nM | IC50 (Histone deacetylase 1): > 10000 nM

COc1nc(-c2ccc(NC(=O)Nc3ccc(C(=O)Nc4ccc(F)c(F)c4N)cc3)cc2)nc(N2CCOCC2)n1
IC50 (Histone deacetylase 2): > 10000 nM | IC50 [1]: 20.5 nM | IC50 (Histone deacetylase 1): > 10000 nM

Nc1ccccc1NC(=O)CCCCCCNC(=O)c1ccc(NC(=O)Nc2ccc(-c3nc(OC4CCOC4)nc(N4CCOCC4)n3)cc2)cc1 (centres undefined)
IC50 (Histone deacetylase 2): 241 nM | IC50 [1]: 16.6 nM | IC50 (Histone deacetylase 3): 69.3 nM | IC50 (Histone deacetylase 1): 219 nM

Nc1ccccc1NC(=O)CCCCCCNC(=O)c1ccc(NC(=O)Nc2ccc(-c3nc(N4CCOCC4)nc(N4CCOCC4)n3)cc2)cc1
IC50 (Histone deacetylase 2): 295 nM | IC50 [1]: 29.3 nM | IC50 (Histone deacetylase 3): 76.5 nM | IC50 (Histone deacetylase 1): 404 nM

Nc1ccccc1NC(=O)CCCCCNC(=O)c1ccc(NC(=O)Nc2ccc(-c3nc(OC4CCOC4)nc(N4CCOCC4)n3)cc2)cc1 (centres undefined)
IC50 (Histone deacetylase 2): 247 nM | IC50 [1]: 7.9 nM | IC50 (Histone deacetylase 3): 54 nM | IC50 (Histone deacetylase 1): 211 nM

Nc1c(NC(=O)c2ccc(NC(=O)Nc3ccc(-c4nc(N5CCOCC5)nc(N5CCOCC5)n4)cc3)cc2)ccc(F)c1F
IC50 (Histone deacetylase 2): > 10000 nM | IC50 [1]: 14.3 nM | IC50 (Histone deacetylase 3): 1410 nM | IC50 (Histone deacetylase 1): > 10000 nM

Nc1ccccc1NC(=O)c1ccc(NC(=O)Nc2ccc(-c3nc(OC4COC4)nc(N4CCOCC4)n3)cc2)cc1
IC50 (Histone deacetylase 2): > 10000 nM | IC50 [1]: 2.4 nM | IC50 (Histone deacetylase 3): > 10000 nM | IC50 (Histone deacetylase 1): > 10000 nM
